Experimental data published in patent US11612661B2 (priority 2019, dated 2023).
Several values for one entry are separate records, joined by “and”; a condition that tells them apart may be missing. Identical values can stand only once. Bridge positions count the residues as written; N and C are the ends. Square brackets hold non-standard residues; d marks the D form. Triazole bridges read from a SMILES are 1,4-linked. Peptide text beside a SMILES is read from it. Orn(N3) = [N-]=[N+]=NCCC[C@H](N)C(=O)O; Cit = NC(=O)NCCC[C@H](N)C(=O)O; Pra = C#CC[C@H](N)C(=O)O

Tests used:
[1] = target: rat α9α10 nAChR (Rattus norvegicus, UniProt P43144+Q9JLB5); test: cell-based; assay type: cell-based; conditions: for IC50: α9α10 nAChR IC50 (nM) Rat
[2] = target: human α9α10 nAChR (Homo sapiens, UniProt Q9GZZ6+Q9UGM1); test: cell-based; assay type: cell-based
[3] = rat, in vivo, 1 mg/kg, 1 h
[4] = system: oxaliplatin-induced peripheral neuropathy; set-up: species or system Sprague Dawley rats; conditions: in vivo
[5] = 24 h
[6] = in vivo; conditions: male, Sprague Dawley, rat, sc, 1 mg/kg
[7] = target: α7 nAChR (Homo sapiens, UniProt P36544); conditions: read-out: Partial inhibition of the α7 nAChR
[8] = system: spared nerve injury; set-up: species or system rats; conditions: rat, in vivo, 0.5 mg/kg
[9] = system: 88 receptors, transporters, enzymes and kinases
[10] = system: α9α10 nAChR; conditions: cited from earlier work

Chain of human α9α10 nAChR (Q9UGM1 26-479 limits assumed): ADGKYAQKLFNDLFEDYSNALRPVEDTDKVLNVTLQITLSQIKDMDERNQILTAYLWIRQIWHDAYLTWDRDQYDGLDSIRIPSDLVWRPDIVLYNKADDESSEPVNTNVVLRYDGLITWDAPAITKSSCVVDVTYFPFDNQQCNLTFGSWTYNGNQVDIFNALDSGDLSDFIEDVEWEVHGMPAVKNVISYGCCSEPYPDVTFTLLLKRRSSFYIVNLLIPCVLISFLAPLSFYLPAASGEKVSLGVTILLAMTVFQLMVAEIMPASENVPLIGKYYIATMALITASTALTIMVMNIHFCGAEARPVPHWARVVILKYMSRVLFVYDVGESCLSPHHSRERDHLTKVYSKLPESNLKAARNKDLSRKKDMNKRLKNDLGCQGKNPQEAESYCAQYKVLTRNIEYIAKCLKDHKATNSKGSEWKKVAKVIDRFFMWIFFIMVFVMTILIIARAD
Chain of human α9α10 nAChR (Q9GZZ6 25-450 limits assumed): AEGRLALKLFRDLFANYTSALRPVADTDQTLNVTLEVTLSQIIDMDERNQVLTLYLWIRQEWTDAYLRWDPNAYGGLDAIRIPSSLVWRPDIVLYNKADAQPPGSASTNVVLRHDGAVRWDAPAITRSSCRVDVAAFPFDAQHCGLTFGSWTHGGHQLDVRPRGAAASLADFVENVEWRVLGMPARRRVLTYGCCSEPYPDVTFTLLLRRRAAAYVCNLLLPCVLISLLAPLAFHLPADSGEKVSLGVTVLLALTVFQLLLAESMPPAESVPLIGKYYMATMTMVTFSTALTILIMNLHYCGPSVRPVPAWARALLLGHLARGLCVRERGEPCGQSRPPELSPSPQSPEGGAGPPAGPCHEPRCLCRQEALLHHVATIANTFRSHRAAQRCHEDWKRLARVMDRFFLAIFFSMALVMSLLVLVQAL
Chain of rat α9α10 nAChR (P43144 26-479 limits assumed): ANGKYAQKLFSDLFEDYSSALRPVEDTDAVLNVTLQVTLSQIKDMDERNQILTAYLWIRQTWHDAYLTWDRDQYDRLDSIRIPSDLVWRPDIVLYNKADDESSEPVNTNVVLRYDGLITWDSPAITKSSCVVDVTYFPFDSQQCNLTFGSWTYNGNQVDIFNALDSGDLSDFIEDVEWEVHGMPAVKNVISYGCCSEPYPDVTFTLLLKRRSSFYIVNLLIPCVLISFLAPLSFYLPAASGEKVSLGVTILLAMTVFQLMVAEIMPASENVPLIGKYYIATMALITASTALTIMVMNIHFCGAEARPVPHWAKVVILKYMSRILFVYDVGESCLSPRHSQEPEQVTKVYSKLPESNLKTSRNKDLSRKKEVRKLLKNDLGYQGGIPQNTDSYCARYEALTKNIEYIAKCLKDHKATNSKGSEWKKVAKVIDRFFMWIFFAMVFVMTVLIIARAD
Chain of rat α9α10 nAChR (Q9JLB5 25-447 limits assumed): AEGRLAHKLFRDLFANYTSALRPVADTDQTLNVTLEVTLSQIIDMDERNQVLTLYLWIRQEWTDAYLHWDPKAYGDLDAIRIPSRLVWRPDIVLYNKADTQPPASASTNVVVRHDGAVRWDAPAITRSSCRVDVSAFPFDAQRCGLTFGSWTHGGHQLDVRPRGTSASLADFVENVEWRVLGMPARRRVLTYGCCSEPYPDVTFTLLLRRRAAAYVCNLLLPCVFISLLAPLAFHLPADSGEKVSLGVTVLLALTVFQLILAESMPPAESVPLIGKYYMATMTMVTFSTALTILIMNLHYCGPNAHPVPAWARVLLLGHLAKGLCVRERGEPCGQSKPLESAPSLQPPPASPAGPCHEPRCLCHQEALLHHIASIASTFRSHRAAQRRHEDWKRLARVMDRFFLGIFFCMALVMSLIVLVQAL
Chain of α7 nAChR (P36544 23-502 limits assumed): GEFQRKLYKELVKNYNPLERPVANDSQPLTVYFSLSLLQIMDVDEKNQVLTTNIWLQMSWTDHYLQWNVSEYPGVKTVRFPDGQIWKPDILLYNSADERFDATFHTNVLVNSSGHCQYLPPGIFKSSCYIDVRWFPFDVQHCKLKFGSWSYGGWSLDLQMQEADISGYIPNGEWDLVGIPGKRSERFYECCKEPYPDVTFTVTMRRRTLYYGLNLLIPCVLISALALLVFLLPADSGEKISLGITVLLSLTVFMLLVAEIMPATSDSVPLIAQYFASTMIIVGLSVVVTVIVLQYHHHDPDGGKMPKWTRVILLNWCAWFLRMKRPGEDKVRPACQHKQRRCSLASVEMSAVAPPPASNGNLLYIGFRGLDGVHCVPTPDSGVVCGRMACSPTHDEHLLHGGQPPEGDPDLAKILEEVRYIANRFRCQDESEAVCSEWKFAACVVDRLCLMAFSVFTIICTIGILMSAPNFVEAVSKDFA

## C[C@@H](O)[C@@H]1NC(=O)[C@@H]2CSSC[C@@H](C(=O)N[C@@H](Cc3ccc(O)cc3)C(N)=O)NC(=O)[C@H](CCC(N)=O)NC(=O)[C@H](Cc3ccc(O)c(I)c3)NC(=O)[C@H](CCCNC(N)=O)NC(=O)[C@H](CSSC[C@H](NC(=O)CN)C(=O)N2)NC(=O)[C@H](CCCNC(=N)N)NC(=O)[C@@H]2CCCN2C(=O)[C@H](CC(=O)O)NC1=O [CSP-4-NH2, reference compound]
[1]
  Activity on the rat α9α10 nAChR (in words): active
  IC50: 0.4 ± 0.2 nM
[2]
  Activity on the human α9α10 nAChR (in words): active
  Block of ACh-evoked currents: > 99%
  IC50: 3.5 ± 1.5 nM
  Percent of 100 μM acetylcholine-induced current remaining in the presence of compound, Mean ± SEM: 0.4 ± 0.11%
[3]
  Recovered peptide from blood remaining in the native form: 40-50%

## C[C@@H](O)[C@@H]1NC(=O)[C@@H]2Cc3cn(nn3)CCC[C@@H](C(=O)N[C@@H](Cc3ccc(O)cc3)C(=O)O)NC(=O)[C@H](CCC(N)=O)NC(=O)[C@H](Cc3c[nH]c4ccccc34)NC(=O)[C@H](CCCNC(N)=O)NC(=O)[C@H](CSSC[C@H](NC(=O)CN)C(=O)N2)NC(=O)[C@H](CCCNC(=N)N)NC(=O)[C@@H]2CCCN2C(=O)[C@H](CC(=O)O)NC1=O [Ia, L-tyrosine, glycyl-L-cysteinyl-L-alanyl-L-threonyl-L-α-aspartyl-L-prolyl-L-arginyl-L-cysteinyl-N5-(aminocarbonyl)-L-ornithyl-L-tryptophyl-L-glutaminyl-L-norvalyl-cyclic (2→8) disulfide-cyclic 3^3,12^5-(1H-1,2,3-triazole-4,1-diyl)] (H-GC[Pra]TDPRC[Cit]WQ[Orn(N3)]Y-OH; disulfide 2-8; triazole 3-12)
[1]
  IC50: 14.3 ± 1.8 nM
[2]
  IC50: 0.7 ± 0.03 nM
[4]
  PD (Rat CIPN) Duration of PD effect: 4 to 24 h
  PD (Rat CIPN) Required dose to reach max efficacy: 0.5 mg/kg
[4]; rat, 0.5 mg/kg
  Duration of significant reduction in mechanical hyperalgesia compared to vehicle: up to 4 h
[5]
  Disulfide rearrangement / stability in plasma and serum (in words): single isolated peak on reverse phase HPLC in rat plasma at 0 h, 8 h and 24 h
[6]
  AUC: 0.981 µg·h/mL
  AUC(0-t): 0.981 µg·h/mL
  Cmax: 0.648 µg/mL
  Tmax: 15 min
  half-life: 30 min

## C[C@@H](O)[C@@H]1NC(=O)[C@@H]2Cc3cn(nn3)CCC[C@@H](C(=O)N[C@@H](Cc3ccc(O)cc3)C(N)=O)NC(=O)[C@H](CCC(N)=O)NC(=O)[C@H](Cc3c[nH]c4ccccc34)NC(=O)[C@H](CCCNC(N)=O)NC(=O)[C@H](CSSC[C@H](NC(=O)CN)C(=O)N2)NC(=O)[C@H](CCCNC(=N)N)NC(=O)[C@@H]2CCCN2C(=O)[C@H](CC(=O)O)NC1=O [Ia′, L-tyrosinamide, glycyl-L-cysteinyl-L-alanyl-L-threonyl-L-α-aspartyl-L-prolyl-L-arginyl-L-cysteinyl-N5-(aminocarbonyl)-L-ornithyl-L-tryptophyl-L-glutaminyl-L-norvalyl-cyclic (2→8)-disulfide-cyclic 3^3,12^5-(1H-1,2,3-triazole-4,1-diyl)] (H-GC[Pra]TDPRC[Cit]WQ[Orn(N3)]Y-NH2; disulfide 2-8; triazole 3-12)
[1]
  IC50: 12.6 nM and 7.7 nM
[2]
  IC50: 26 ± 4 nM
[7]
  inhibition at 10 µM: 52%
[4]; rat, 0.5 mg/kg
  Duration of significant reduction in mechanical hyperalgesia compared to vehicle: up to 24 h
[4]; rat, sc, 0.5 mg/kg
  Mechanical hyperalgesia versus vehicle (in words): statistically significant improvements in mechanical hyperalgesia
[8]
  Duration of significant reduction in mechanical hyperalgesia compared to vehicle: up to 24 h
[8]; sc
  Mechanical hyperalgesia versus vehicle (in words): statistically significant improvement in mechanical hyperalgesia
[9]
  Off-target effects in panel of 88 receptors, transporters, enzymes and kinases: no off-target effects

## N=C(N)NCCC[C@H](NC(=O)[C@@H]1CSSC[C@@H]2NC(=O)[C@@H](NC(=O)CN)CSSC[C@H](NC(=O)[C@H](CCCNC(=N)N)NC(=O)[C@@H]3CCCN3C(=O)[C@H](CC(=O)O)NC(=O)[C@H](CO)NC2=O)C(=O)N[C@@H](CCCNC(=N)N)C(=O)N[C@@H](Cc2ccc(O)cc2)C(=O)N[C@@H](CCCNC(=N)N)C(=O)N1)C(=O)O [RgIA]
[10]
  Lower affinity for the human than the rat α9α10 nAChR: approximately 300 fold
